Results on one molecule are retold here after patent US20230277444A1, “FORMULATIONS OF PTHrP ANALOGUES, TRANSDERMAL PATCHES THEREOF, AND USES THEREOF” (priority 2018, published 2023).

For data set [1] the following is noted: cynomolgus monkey, in vivo, sc.
Experimental: (§1) Microneedle transdermal patches coated with various formulations of the PTHrP analogue of SEQ ID NO:1 were provided ready for use and stored refrigerated at 2-8° C. At least one hour prior to use, the transdermal patches in individual pouches were placed at room temperature. Eight female non-naïve Chinese Cynomolgus monkeys (2-4 kg at time of dosing) were included in the study. The same eight animals were used to test each formulation, with a three day washout period between tests.
(§2) Time points were calculated from the time of patch application at 5 minutes, 10 minutes, 20 minutes, 30 minutes, 1 hour, and 1.5 hours post-dose. A time point of pre-dose was taken at Day 1. 1.5 mL of whole blood was collected at each time point. K3EDTA/aprotinin was used as an anti-coagulant.
(§3) Each animal received a fixed dose of SEQ ID NO:1 without correcting for body weight. The dose administration was performed as follows:
(§4) Day 1: Test material was delivered by application of a transdermal patch. The skin was prepared 24 hours prior to each transdermal patch application as follows: a small area (5×5 cm) of the dorsal flank was prepared by close clipping of the hair with a small animal clipper. Care was taken during the clipping procedure to avoid abrasion of the skin. Both sides of the dorsal flank (thigh) were prepared for each administration to ensure a side without skin irritation was used for dose administration. Fifteen (15) minutes prior to patch application the skin was wiped with an alcohol swab. Extra care was taken to ensure the collar of the path was firmly attached to the applicator prior to application and that the transdermal patch was firmly seated on the leg for administration.
(§5) The skin was prepared 24 hours prior to each transdermal patch application as described above. Extra care was taken to ensure the collar of the path is firmly attached to the applicator prior to application and that the transdermal patch was firmly seated on the leg for administration.
(§6) A line was drawn around the site of administration to enable post dose observations. After patch removal, the transdermal patch was analyzed for residual content.
(§7) Any abnormalities were recorded by exception and reported immediately. Each dose site at pre-dose, 1 hour and 24 hours post-dose was scored using the Draize scoring system. Body weights of the animals were recorded prior to Day 1.
(§8) All blood samples were collected from a peripheral vessel. At Day 1, 1.5 mL of whole blood was collected pre-dose into a K3EDTA/aprotinin tube containing 15 μL (of 2.5 mg protein/mL/aprotinin solution) per ml of whole blood. […] Whole blood samples were collected within ±5% of the scheduled collection time, with actual collection times recorded. Samples were kept on wet ice until processed.
(§9) The whole blood samples were processed to plasma. […] Plasma samples were transferred to two approximately equal aliquots (aliquot 1 and aliquot 2). Samples were frozen at −70° C.±10° C.
A short description of data set [2]: in vivo. The settings on record: female, Chinese Cynomolgus, cynomolgus monkey, sc.
Experimental: as §1, §2, §3, §4, §5, §6, §7, §8, §9

In general, Cmax refers to the maximum level reached in the sampled fluid or tissue. As a reminder, the Tmax is the time from dosing to the highest level. The term half-life denotes the time needed for the level to fall by half in the phase considered. Read a low half-life as fast loss. `CC[C@H](C)[C@H](NC(=O)[C@H](CO)NC(=O)[C@H](CCCCN)NC(=O)CNC(=O)[C@H](CCCCN)NC(=O)[C@H](CC(=O)O)NC(=O)[C@H](Cc1cnc[nH]1)NC(=O)[C@H](CC(C)C)NC(=O)[C@H](CC(C)C)NC(=O)[C@H](CCC(N)=O)NC(=O)[C@H](Cc1cnc[nH]1)NC(=O)[C@H](CCC(=O)O)NC(=O)[C@H](CO)NC(=O)[C@@H](NC(=O)[C@H](C)N)C(C)C)C(=O)N[C@@H](CCC(N)=O)C(=O)N[C@@H](CC(=O)O)C(=O)N[C@@H](CC(C)C)C(=O)N[C@@H](CCCNC(=N)N)C(=O)N[C@@H](CCCNC(=N)N)C(=O)N[C@@H](CCCNC(=N)N)C(=O)N[C@@H](CCC(=O)O)C(=O)N[C@@H](CC(C)C)C(=O)N[C@@H](CC(C)C)C(=O)N[C@@H](CCC(=O)O)C(=O)N[C@@H](CCCCN)C(=O)N[C@@H](CC(C)C)C(=O)N[C@@H](CC(C)C)C(=O)NC(C)(C)C(=O)N[C@@H](CCCCN)C(=O)N[C@@H](CC(C)C)C(=O)N[C@@H](Cc1cnc[nH]1)C(=O)N[C@H](C(=O)N[C@@H](C)C(N)=O)[C@@H](C)O` [Abaloparatide, [Glu^22,25, Leu^23,28,31, Aib^29, Lys^26,30]hPTHrP(1-34)NH2] showed an AUC in data set [1] of 131610. In data set [2], the Cmax was found to be 3.34 ng/mL, the Tmax was 7 min, the half-life came out at 14 min and the level at 5 min was 1.9 ng/mL. In data set [2], the level at 10 min was 0.88 ng/mL, the level at 20 min is 0.542 ng/mL, the level at 0.5 h was 0.222 ng/mL and the level at 1 h was 0.12 ng/mL.
